B1: Ovalbumin: protein-based preservative (protein, UniProt P01012 2-386, looked up)
Ovalbumin: GSIGAASMEFCFDVFKELKVHHANENIFYCPIAIMSALAMVYLGAKDSTRTQINKVVRFDKLPGFGDSIEAQCGTSVNVHSSLRDILNQITKPNDVYSFSLASRLYAEERYPILPEYLQCVKELYRGGLEPINFQTAADQARELINSWVESQTNGIIRNVLQPSSVDSQTAMVLVNAIVFKGLWEKAFKDEDTQAMPFRVTEQESKPVQMMYQIGLFRVASMASEKMKILELPFASGTMSMLVLLPDEVSGLEQLESIINFEKLTEWTSSNVMEERKIKVYLPRMKMEEKYNLTSVLMAMGITDVFSSSANLSGISSAESLKISQAVHAAHAEINEAGREVVGSAEAGVDAASVSEEFRADHPFLFCIKHIATNAVLFFGRCVSP

System: Lactobacillus clearans
Experiment: Viability of Lactobacillus clearans during lyophilization with preservatives
Format: cell-based
Conditions: protein-amino acid-based preservative used alone; viability class
Protocol: (§1) Here, alfalfa juice and clover juice refer to liquids which are made by adding 10-fold water to alfalfa grass or clover grass to make a juice, these being used as alfalfa juice or clover juice, respectively. The amounts in which the preservatives are added are expressed in terms of the weight ratio of the preservative relative to the weight of the viable cells. […] The viability of Lactobacillus clearans is expressed as a percentage, where 100% is the viable cell count immediately after lyophilization. The viability during lyophilization is indicated as concentric circles when the viability is more than 90%, as two concentric circles to one circle when the rate is 80 to 90%, as one circle when the rate is 60 to 80%, as a square when the rate is 40 to 60%, as a triangle when the rate is 20 to 40%, and as an “x” when the rate is less than 20%.
(§2) Here, the amounts in which the preservatives were added are expressed as the weight ratio of the preservative relative to the viable cell weight. […] The viability of Lactobacillus clearans during lyophilization is indicated as two concentric circles when the viability is more than 90%, as two concentric circles to one circle when the rate is 80 to 90%, as one circle when the rate is 60 to 80%, as a square when the rate is 40 to 60%, as a triangle when the rate is 20 to 40%, and as an “x” when the rate is less than 20%.

Molecule | Results during lyophilization
NCCCC(=O)O | □ (a square when the rate is 40 to 60%)
C[C@H](N)C(=O)O [Alanine] | Δ (a triangle when the rate is 20 to 40%)
N=C(N)NCCC[C@H](N)C(=O)O [Arginine] | Δ (a triangle when the rate is 20 to 40%)
NC(=O)C[C@H](N)C(=O)O [Asparagine] | □ (a square when the rate is 40 to 60%)
N[C@@H](CS)C(=O)O [Cysteine] | ◯ (one circle when the rate is 60 to 80%)
N[C@@H](CSSC[C@H](N)C(=O)O)C(=O)O [Cystine] | ◯ (one circle when the rate is 60 to 80%)
NCC(=O)O [Glycine] | Δ (a triangle when the rate is 20 to 40%)
CC(C)C[C@H](N)C(=O)O [Leucine] | Δ (a triangle when the rate is 20 to 40%)
NCCCC[C@H](N)C(=O)O [Lysine] | Δ (a triangle when the rate is 20 to 40%)
CSCC[C@H](N)C(=O)O [Methionine] | ◯ (one circle when the rate is 60 to 80%)
N[C@@H](CCC(=O)[O-])C(=O)[O-].[Na+].[Na+] [Sodium glutamate] | □ (a square when the rate is 40 to 60%)
NCCS(=O)(=O)O [Taurine] | ◯ (one circle when the rate is 60 to 80%)
N[C@@H](Cc1c[nH]c2ccccc12)C(=O)O [Tryptophan] | Δ (a triangle when the rate is 20 to 40%)
Gelatin | X (an “x” when the rate is less than 20%)
B1 | ◯ (one circle when the rate is 60 to 80%)

Same assay, conditions: saccharides and animal-based protein·vitamin·mineral complex preservative used alone; viability class

Molecule | Results during lyophilization
OC[C@H]1O[C@@H](O[C@H]2[C@H](O)[C@@H](O)C(O)O[C@@H]2CO)[C@H](O)[C@@H](O)[C@H]1O (some centres unmarked) [Lactose] | □ (a square when the rate is 40 to 60%)
OC[C@H]1O[C@@](CO)(O[C@H]2O[C@H](CO)[C@@H](O)[C@H](O)[C@H]2O)[C@@H](O)[C@@H]1O [Sucrose] | Δ (a triangle when the rate is 20 to 40%)
OC[C@H]1O[C@H](O[C@H]2O[C@H](CO)[C@@H](O)[C@H](O)[C@H]2O)[C@H](O)[C@@H](O)[C@@H]1O [Trehalose] | ◯ (one circle when the rate is 60 to 80%)

System: Lactobacillus clearans
Experiment: Viability of Lactobacillus clearans during storage with preservatives
Conditions: not given
Protocol: as §1, §2

Molecule | Changes over time during storage, Viability (%) 3 months [%] | Changes over time during storage, Viability (%) 6 months [%] | Changes over time during storage, Viability (%) 12 months [%]
Gelatin | 10 | 3 | 0
Potato starch | 30 | 20 | 10
Soluble starch | 60 | 40 | 15
Yeast extract | 50 | 30 | 20
B1 | 70 | 50 | 30

Same assay, conditions: Lactobacillus clearans, 3 months

Molecule | Changes over time during storage, Viability (%) 3 months [%]
NCCCC(=O)O | 65
C[C@H](N)C(=O)O [Alanine] | 30
N=C(N)NCCC[C@H](N)C(=O)O [Arginine] | 20
NC(=O)C[C@H](N)C(=O)O [Asparagine] | 55
N[C@@H](CS)C(=O)O [Cysteine] | 65
N[C@@H](CSSC[C@H](N)C(=O)O)C(=O)O [Cystine] | 70
NCC(=O)O [Glycine] | 25
OC[C@H]1O[C@@H](O[C@H]2[C@H](O)[C@@H](O)C(O)O[C@@H]2CO)[C@H](O)[C@@H](O)[C@H]1O (some centres unmarked) [Lactose] | 70
CC(C)C[C@H](N)C(=O)O [Leucine] | 25
CSCC[C@H](N)C(=O)O [Methionine] | 65
OC[C@H]1O[C@@](CO)(O[C@H]2O[C@H](CO)[C@@H](O)[C@H](O)[C@H]2O)[C@@H](O)[C@@H]1O [Sucrose] | 30
NCCS(=O)(=O)O [Taurine] | 70
N[C@@H](Cc1c[nH]c2ccccc12)C(=O)O [Tryptophan] | 25

Same assay, conditions: Lactobacillus clearans, 6 months

Molecule | Changes over time during storage, Viability (%) 6 months [%]
NCCCC(=O)O | 45
C[C@H](N)C(=O)O [Alanine] | 15
N=C(N)NCCC[C@H](N)C(=O)O [Arginine] | 5
NC(=O)C[C@H](N)C(=O)O [Asparagine] | 30
N[C@@H](CS)C(=O)O [Cysteine] | 45
N[C@@H](CSSC[C@H](N)C(=O)O)C(=O)O [Cystine] | 50
NCC(=O)O [Glycine] | 10
OC[C@H]1O[C@@H](O[C@H]2[C@H](O)[C@@H](O)C(O)O[C@@H]2CO)[C@H](O)[C@@H](O)[C@H]1O (some centres unmarked) [Lactose] | 50
CC(C)C[C@H](N)C(=O)O [Leucine] | 10
CSCC[C@H](N)C(=O)O [Methionine] | 45
OC[C@H]1O[C@@](CO)(O[C@H]2O[C@H](CO)[C@@H](O)[C@H](O)[C@H]2O)[C@@H](O)[C@@H]1O [Sucrose] | 15
NCCS(=O)(=O)O [Taurine] | 50
N[C@@H](Cc1c[nH]c2ccccc12)C(=O)O [Tryptophan] | 10

Same assay, conditions: Lactobacillus clearans, 12 months

Molecule | Changes over time during storage, Viability (%) 12 months [%]
NCCCC(=O)O | 25
C[C@H](N)C(=O)O [Alanine] | 5
N=C(N)NCCC[C@H](N)C(=O)O [Arginine] | 2
NC(=O)C[C@H](N)C(=O)O [Asparagine] | 15
N[C@@H](CS)C(=O)O [Cysteine] | 30
N[C@@H](CSSC[C@H](N)C(=O)O)C(=O)O [Cystine] | 35
NCC(=O)O [Glycine] | 2
OC[C@H]1O[C@@H](O[C@H]2[C@H](O)[C@@H](O)C(O)O[C@@H]2CO)[C@H](O)[C@@H](O)[C@H]1O (some centres unmarked) [Lactose] | 20
CC(C)C[C@H](N)C(=O)O [Leucine] | 3
CSCC[C@H](N)C(=O)O [Methionine] | 30
OC[C@H]1O[C@@](CO)(O[C@H]2O[C@H](CO)[C@@H](O)[C@H](O)[C@H]2O)[C@@H](O)[C@@H]1O [Sucrose] | 5
NCCS(=O)(=O)O [Taurine] | 35
N[C@@H](Cc1c[nH]c2ccccc12)C(=O)O [Tryptophan] | 4

Same assay, conditions: protein-amino acid-based preservative; 100% = viable cell count immediately after lyophilization; 3 months

Molecule | Changes over time during storage, Viability (%) 3 months [%]
NCCCC[C@H](N)C(=O)O [Lysine] | 30
N[C@@H](CCC(=O)[O-])C(=O)[O-].[Na+].[Na+] [Sodium glutamate] | 60

Same assay, conditions: protein-amino acid-based preservative; 100% = viable cell count immediately after lyophilization; 6 months

Molecule | Changes over time during storage, Viability (%) 6 months [%]
NCCCC[C@H](N)C(=O)O [Lysine] | 15
N[C@@H](CCC(=O)[O-])C(=O)[O-].[Na+].[Na+] [Sodium glutamate] | 40

Same assay, conditions: protein-amino acid-based preservative; 100% = viable cell count immediately after lyophilization; 12 months

Molecule | Changes over time during storage, Viability (%) 12 months [%]
NCCCC[C@H](N)C(=O)O [Lysine] | 5
N[C@@H](CCC(=O)[O-])C(=O)[O-].[Na+].[Na+] [Sodium glutamate] | 20

Same assay, conditions: saccharides and animal-based complex preservative; 100% = viable cell count immediately after lyophilization; 3 months

Molecule | Changes over time during storage, Viability (%) 3 months [%]
OC[C@H]1O[C@H](O[C@H]2O[C@H](CO)[C@@H](O)[C@H](O)[C@H]2O)[C@H](O)[C@@H](O)[C@@H]1O [Trehalose] | 75

Same assay, conditions: saccharides and animal-based complex preservative; 100% = viable cell count immediately after lyophilization; 6 months

Molecule | Changes over time during storage, Viability (%) 6 months [%]
OC[C@H]1O[C@H](O[C@H]2O[C@H](CO)[C@@H](O)[C@H](O)[C@H]2O)[C@H](O)[C@@H](O)[C@@H]1O [Trehalose] | 50

Same assay, conditions: saccharides and animal-based complex preservative; 100% = viable cell count immediately after lyophilization; 12 months

Molecule | Changes over time during storage, Viability (%) 12 months [%]
OC[C@H]1O[C@H](O[C@H]2O[C@H](CO)[C@@H](O)[C@H](O)[C@H]2O)[C@H](O)[C@@H](O)[C@@H]1O [Trehalose] | 30

System: Lactobacillus clearans
Experiment: Changes in titer of Lactobacillus clearans during storage with preservatives
Format: cell-based
Conditions: not given
Protocol: as §1, §2

Molecule | Changes over time during storage, Changes in titer
N=C(N)NCCC[C@H](N)C(=O)O [Arginine] | −

Same assay, conditions: protein-amino acid-based preservative

Molecule | Changes over time during storage, Changes in titer
NCCCC(=O)O | ±
C[C@H](N)C(=O)O [Alanine] | −
NC(=O)C[C@H](N)C(=O)O [Asparagine] | ±
N[C@@H](CS)C(=O)O [Cysteine] | +
N[C@@H](CSSC[C@H](N)C(=O)O)C(=O)O [Cystine] | +
NCC(=O)O [Glycine] | −
CC(C)C[C@H](N)C(=O)O [Leucine] | −
NCCCC[C@H](N)C(=O)O [Lysine] | ±
CSCC[C@H](N)C(=O)O [Methionine] | +
N[C@@H](CCC(=O)[O-])C(=O)[O-].[Na+].[Na+] [Sodium glutamate] | ±
NCCS(=O)(=O)O [Taurine] | +
N[C@@H](Cc1c[nH]c2ccccc12)C(=O)O [Tryptophan] | −
B1 | +

Same assay, conditions: saccharides and animal-based complex preservative

Molecule | Changes over time during storage, Changes in titer
OC[C@H]1O[C@@H](O[C@H]2[C@H](O)[C@@H](O)C(O)O[C@@H]2CO)[C@H](O)[C@@H](O)[C@H]1O (some centres unmarked) [Lactose] | ±
OC[C@H]1O[C@@](CO)(O[C@H]2O[C@H](CO)[C@@H](O)[C@H](O)[C@H]2O)[C@@H](O)[C@@H]1O [Sucrose] | −
OC[C@H]1O[C@H](O[C@H]2O[C@H](CO)[C@@H](O)[C@H](O)[C@H]2O)[C@H](O)[C@@H](O)[C@@H]1O [Trehalose] | +

System: Lactobacillus clearans
Experiment: Effect of substances added during subculture on titer of Lactobacillus clearans
Format: cell-based
Conditions: added to medium during subculture
Excerpt: The most important amino acids constituting the bacterial cells or enzymes were studied by type for their effects on Lactobacillus clearans.
We looked for substances capable of such enhancement or potentiation and conducted extensive- study.

Molecule | effect on titer of Lactobacillus clearans
N[C@@H](CS)C(=O)O [Cysteine] | extremely effective
N[C@@H](CSSC[C@H](N)C(=O)O)C(=O)O [Cystine] | extremely effective
NCCCC[C@H](N)C(=O)O [Lysine] | extremely effective
CSCC[C@H](N)C(=O)O [Methionine] | extremely effective
NCCS(=O)(=O)O [Taurine] | extremely effective
O=C1O[C@H]([C@@H](O)CO)C(O)=C1O [Vitamin C] | effective
N[C@@H](CC(=O)O)C(=O)O [aspartic acid] | extremely effective
Nc1nc2ncc(CNc3ccc(C(=O)N[C@@H](CCC(=O)O)C(=O)O)cc3)nc2c(=O)[nH]1 [folic acid] | effective
N[C@@H](CCC(=O)O)C(=O)O [glutamic acid] | extremely effective
[Mg+2] [magnesium] | effective
[Mn+2] [manganese] | effective
[Mo] [molybdenum] | effective
NC(=O)c1cccnc1 [nicotinamide] | effective
O=C(O)[C@@H]1CCCN1 [proline] | a rapid decrease in titer
[Zn] [zinc] | effective
Vitamin B12 | effective
Vitamin E | effective
calcium pantothenate | effective
